Test results taken from US8106055B2, “Substituted amide compounds” (Gruenenthal GmbH, priority 2007, dated 2012).

How the values were obtained:
[1] = biological target: T1, human bradykinin 1 receptor (B1R) (Homo sapiens, UniProt P46663); assay: Functional investigation on the human bradykinin 1 receptor (B1R), Ca2+ FLIPR assay in CHO K1 hB1R cells; type: cell-based; details: CHO-K1, B1R antagonism human; test substance 10 μM; Ca2+ FLIPR, CHO K1 hB1R cells; read-out: B1R Ant. h [10 μM] % Inhibition
T1 construct: expressed in transfected cells; host or cells: CHO K1 cells
T1 sequence (P46663 1-353): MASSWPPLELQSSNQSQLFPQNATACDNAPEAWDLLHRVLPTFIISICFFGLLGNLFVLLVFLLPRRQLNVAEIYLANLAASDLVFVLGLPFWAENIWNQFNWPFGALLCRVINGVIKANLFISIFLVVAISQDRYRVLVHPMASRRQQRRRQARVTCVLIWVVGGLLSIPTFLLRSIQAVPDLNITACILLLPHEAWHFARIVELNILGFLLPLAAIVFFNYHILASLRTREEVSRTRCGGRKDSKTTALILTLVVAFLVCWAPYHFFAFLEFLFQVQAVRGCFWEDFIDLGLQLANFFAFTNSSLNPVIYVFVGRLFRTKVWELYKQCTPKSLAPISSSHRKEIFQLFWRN
From the text: (§1) Functional Investigation on the Human Bradykinin 1 Receptor (B1R)
(§2) The agonistic or antagonistic action of substances can be determined on the bradykinin 1 receptor (B1R) of the human species and rats with the following assay. In accordance with this assay, the Ca^2+ inflow through the channel is quantified with the aid of a Ca^2=-sensitive dyestuff (type Fluo-4, Molecular Probes Europe BV, Leiden, Holland) in a fluorescent imaging plate reader (FLIPR, Molecular Devices, Sunnyvale, USA).
(§3) Chinese hamster ovary cells (CHO K1 cells) transfected stably with the human B1R gene (hB1R cells) or the B1R gene of the rat (rB1R cells) are used. For functional studies, these cells are plated out on black 96-well plates with a clear base (BD Biosciences, Heidelberg, Germany or Greiner, Frickenhausen, Germany) in a density of 20,000-35,000 cells/well. The cells are left overnight at 37° C. and 5% CO2 in culture medium (hB1R cells: Nutrient Mixture Ham's F12, Gibco Invitrogen GmbH, Karlsruhe, Germany or DMEM, Sigma-Aldrich, Taufkirchen, Germany; rB1R cells: D-MEM/F12, Gibco Invitrogen GmbH, Karlsruhe, Germany) with 10 vol. % of FBS (foetal bovine serum, Gibco Invitrogen GmbH, Karlsruhe, Germany or PAN Biotech GmbH, Aidenbach, Germany).
(§4) On the following day, the cells are loaded for 60 min at 37° C. with 2.13 μM Fluo-4 (Molecular Probes Europe BV, Leiden, The Netherlands) in HBSS buffer (Hank's buffered saline solution, Gibco Invitrogen GmbH, Karlsruhe, Germany) with 2.5 mM probenecid (Sigma-Aldrich, Taufkirchen, Germany) and 10 mM HEPES (Sigma-Aldrich, Taufkirchen, Germany). The plates are then washed 2× with HBSS buffer, and HBSS buffer which additionally contains 0.1% of BSA (bovine serum albumin; Sigma-Aldrich, Taufkirchen, Germany), 5.6 mM glucose and 0.05% of gelatine (Merck KGaA, Darmstadt, Germany) is added. After a further incubation of 20 minutes at room temperature, the plates are inserted into the FLIPR for the Ca^2+ measurement.
(§5) Alternatively, the plates are washed with buffer A (15 mM HEPES, 80 mM NaCl, 5 mM KCl, 1.2 mM CaCl2, 0.7 mM MgSO4, 2 g/l glucose, 2.5 mM probenecid), buffer A is added and the plates are loaded with 2.5 μM Fluo-4 and 0.025% of Pluronic F127 (Sigma-Aldrich, Taufkirchen, Germany). Thereafter, the cells are washed 2× with buffer A and incubated for 30 minutes with buffer A, which additionally contains 0.05% of BSA and 0.05% of gelatine, at room temperature and thereafter inserted into the FLIPR for the Ca^2+ measurement.
(§6) The Ca^2+-dependent fluorescence is measured before and after addition of substances (λex=488 nm, λem=540 nm). Quantification is by measurement of the highest fluorescence intensity (FC, fluorescence counts) over time.
(§7) The FLIPR protocol consists of 2 additions of substance. Test substances (10 μM) are first pipetted on to the cells and the Ca^2+ inflow is compared with the control (hB1R: Lys-Des-Arg^9-bradykinin >=50 nM; rB1R: Des-Arg^9-bradykinin 10 μM). This gives the information in % activation based on the Ca^2+ signal after addition of Lys-Des-Arg^9-bradykinin (>=50 nM) or Des-Arg^9-bradykinin (10 μM).
(§8) After incubation for 10-20 minutes, Lys-Des-Arg^9-bradykinin (hB1R) or Des-Arg^9-bradykinin (rB1R) is applied in the concentration of the EC80 and the inflow of Ca^2+ is likewise determined.
(§9) Antagonists lead to a suppression of the Ca^2+ inflow. % inhibition compared with the maximum achievable inhibition is calculated.
(§10) To determine the IC50 value, the substances are added in various concentrations. Duplicate or triplicate determinations (n=2 or n=3) are carried out, and these are repeated in at least one further independent experiment (N>=2).
(§11) Preferably, the compounds have a B1R antagonistic action on the human receptor and/or on the rat receptor. The following data are given by way of example in the following table: (In this, “B1R Ant. h” represents “B1R antagonism human” and “B1R Ant. r” represents “B1R antagonism rat”)

[2] = biological target: T2, bradykinin 1 receptor (B1R) of the rat (Rattus norvegicus, UniProt P97583); assay: Functional investigation on the rat bradykinin 1 receptor (B1R), Ca2+ FLIPR assay in CHO K1 rB1R cells; type: cell-based; details: CHO-K1, B1R antagonism rat; test substance 10 μM; Ca2+ FLIPR, CHO K1 rB1R cells; read-out: B1R Ant. r [10 μM] % Inhibition
T2 construct: expressed in transfected cells; host or cells: CHO K1 cells
T2 sequence (P97583 1-337): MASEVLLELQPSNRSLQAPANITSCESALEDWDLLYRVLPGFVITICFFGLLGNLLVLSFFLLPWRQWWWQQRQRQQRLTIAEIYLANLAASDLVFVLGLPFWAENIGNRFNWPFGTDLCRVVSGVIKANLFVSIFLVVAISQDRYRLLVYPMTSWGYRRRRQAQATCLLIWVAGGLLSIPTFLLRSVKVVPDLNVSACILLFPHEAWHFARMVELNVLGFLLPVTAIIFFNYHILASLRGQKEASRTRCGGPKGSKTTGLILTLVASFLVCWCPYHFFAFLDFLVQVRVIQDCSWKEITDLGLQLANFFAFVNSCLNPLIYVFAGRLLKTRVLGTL
From the text: as §1, §2, §3, §4, §5, §6, §7, §8, §9, §10, §11

## Cc1cc(C)c(-c2noc(C(=O)NCC(=O)NC3CCC(C(c4ccccc4)N(C)C)CC3)n2)c(C)c1 (stereo not drawn) [Example 772, 3-(2,4,6-trimethyl-phenyl)-[1,2,4]oxadiazole-5-carboxylic acid {[4-(dimethylamino-phenyl-methyl)-cyclohexylcarbamoyl]-methyl}-amide]
[1]
  inhibition at 10 µM: 11%
[2]
  inhibition at 10 µM: 41%

## CN(C)C(c1ccccc1)C1CCC(NC(=O)CCNC(=O)c2nc(-c3ccc(Cl)cc3Cl)no2)CC1 (stereo not drawn) [Example 773, 3-(2,4-dichloro-phenyl)-[1,2,4]oxadiazole-5-carboxylic acid {2-[4-(dimethylamino-phenyl-methyl)-cyclohexylcarbamoyl]-ethyl}-amide]
[1]
  inhibition at 10 µM: 20%
[2]
  inhibition at 10 µM: 17%

## COc1ccc(-c2noc(C(=O)NCCC(=O)NC3CCC(C(c4ccccc4)N(C)C)CC3)n2)cc1OC (stereo not drawn) [Example 774, 3-(3,4-dimethoxy-phenyl)-[1,2,4]oxadiazole-5-carboxylic acid {2-[4-(dimethylamino-phenyl-methyl)-cyclohexylcarbamoyl]-ethyl}-amide]
[1]
  inhibition at 10 µM: -8%
[2]
  inhibition at 10 µM: 2%

## COc1ccc(-c2noc(C(=O)NCC(=O)NC3CCC(C(c4ccccc4)N(C)C)CC3)n2)cc1OC (stereo not drawn) [Example 775, 3-(3,4-dimethoxy-phenyl)-[1,2,4]oxadiazole-5-carboxylic acid {[4-(dimethylamino-phenyl-methyl)-cyclohexylcarbamoyl]-methyl}-amide]
[1]
  inhibition at 10 µM: -7%
[2]
  inhibition at 10 µM: 20%

## CN(C)C(c1ccccc1)C1CCC(NC(=O)CCNC(=O)c2nc(-c3cccs3)no2)CC1 (stereo not drawn) [Example 776, 3-thiophen-2-yl-[1,2,4]oxadiazole-5-carboxylic acid {2-[4-(dimethylamino-phenyl-methyl)-cyclohexylcarbamoyl]-ethyl}-amide]
[1]
  inhibition at 10 µM: -22%
[2]
  inhibition at 10 µM: 30%

## CN(C)C(c1cccs1)C1CCC(NC(=O)CNC(=O)c2nc(-c3ccc(C(F)(F)F)cc3)no2)CC1 (stereo not drawn) [Example 777, 3-(4-trifluoromethyl-phenyl)-[1,2,4]oxadiazole-5-carboxylic acid {[4-(dimethylamino-thiophen-2-yl-methyl)-cyclohexylcarbamoyl]-methyl}-amide]
[1]
  inhibition at 10 µM: -1%
[2]
  inhibition at 10 µM: 27%

## CN(C)C(c1cccc(F)c1)C1CCC(CNC(=O)CNC(=O)c2nc(-c3ccc(C(F)(F)F)cc3)no2)CC1 (stereo not drawn) [Example 778, 3-(4-trifluoromethyl-phenyl)-[1,2,4]oxadiazole-5-carboxylic acid [({4-[dimethylamino-(3-fluoro-phenyl)-methyl]-cyclohexylmethyl}-carbamoyl)-methyl]-amide]
[1]
  inhibition at 10 µM: -1%
[2]
  inhibition at 10 µM: 12%

## CN(C)C(c1cccs1)C1CCC(NC(=O)CNC(=O)c2nc(-c3ccc(C(C)(C)C)cc3)no2)CC1 (stereo not drawn) [Example 779, 3-(4-tert-butyl-phenyl)-[1,2,4]oxadiazole-5-carboxylic acid {[4-(dimethylamino-thiophen-2-yl-methyl)-cyclohexylcarbamoyl]-methyl}-amide]
[1]
  inhibition at 10 µM: -10%
[2]
  inhibition at 10 µM: -13%

## CN(C)C(c1cccc(F)c1)C1CCC(CNC(=O)CCNC(=O)c2nc(-c3cccs3)no2)CC1 (stereo not drawn) [Example 780, 3-thiophen-2-yl-[1,2,4]oxadiazole-5-carboxylic acid [2-({4-[dimethylamino-(3-fluoro-phenyl)-methyl]-cyclohexylmethyl}-carbamoyl)-ethyl]-amide]
[1]
  inhibition at 10 µM: -12%
[2]
  inhibition at 10 µM: -2%

## CN(C)C(c1cccc(F)c1)C1CCC(CNC(=O)CNC(=O)c2nc(CS(=O)(=O)c3ccccc3)no2)CC1 (stereo not drawn) [Example 781, 3-benzenesulfonylmethyl-[1,2,4]oxadiazole-5-carboxylic acid [({4-[dimethylamino-(3-fluoro-phenyl)-methyl]-cyclohexylmethyl}-carbamoyl)-methyl]-amide]
[1]
  inhibition at 10 µM: -4%
[2]
  inhibition at 10 µM: -35%

## COc1ccccc1-c1noc(C(=O)NCC(=O)NC2CCC(C(CCc3ccccc3)N(C)C)CC2)n1 (stereo not drawn) [Example 782, 3-(2-methoxy-phenyl)-[1,2,4]oxadiazole-5-carboxylic acid {[4-(1-dimethylamino-3-phenyl-propyl)-cyclohexylcarbamoyl]-methyl}-amide]
[1]
  inhibition at 10 µM: -6%
[2]
  inhibition at 10 µM: -11%

## CN(C)C(CCc1ccccc1)C1CCC(NC(=O)CNC(=O)c2nc(-c3ccc4c(c3)OCO4)no2)CC1 (stereo not drawn) [Example 783, 3-benzo[1,3]dioxol-5-yl-[1,2,4]oxadiazole-5-carboxylic acid {[4-(1-dimethylamino-3-phenyl-propyl)-cyclohexylcarbamoyl]-methyl}-amide]
[1]
  inhibition at 10 µM: 45%
[2]
  inhibition at 10 µM: -28%

## CN(C)C(CCc1ccccc1)C1CCC(NC(=O)CNC(=O)c2nc(-c3cccs3)no2)CC1 (stereo not drawn) [Example 784, 3-thiophen-2-yl-[1,2,4]oxadiazole-5-carboxylic acid {[4-(1-dimethylamino-3-phenyl-propyl)-cyclohexylcarbamoyl]-methyl}-amide]
[1]
  inhibition at 10 µM: 76%
[2]
  inhibition at 10 µM: -1%

## CN(C)C(CCc1ccccc1)C1CCC(NC(=O)CNC(=O)c2nc(-c3ccc(C(F)(F)F)cc3)no2)CC1 (stereo not drawn) [Example 785, 3-(4-trifluoromethyl-phenyl)-[1,2,4]oxadiazole-5-carboxylic acid {[4-(1-dimethylamino-3-phenyl-propyl)-cyclohexylcarbamoyl]-methyl}-amide]
[1]
  inhibition at 10 µM: 76%
[2]
  inhibition at 10 µM: 32%

## CN(C)C(CCc1ccccc1)C1CCC(NC(=O)CNC(=O)c2nc(-c3ccc(C(C)(C)C)cc3)no2)CC1 (stereo not drawn) [Example 786, 3-(4-tert-butyl-phenyl)-[1,2,4]oxadiazole-5-carboxylic acid {[4-(1-dimethylamino-3-phenyl-propyl)-cyclohexylcarbamoyl]-methyl}-amide]
[1]
  inhibition at 10 µM: 35%
[2]
  inhibition at 10 µM: -4%
